# Results as given in patent US8217029B2, “Oxazolidinone antibiotics” (Actelion Pharmaceuticals Ltd, priority 2007, dated 2012).
# System: S aureus A798
# Experiment: Minimal inhibitory concentration (MIC), microdilution method in cation-adjusted Mueller-Hinton Broth following NCCLS guidelines
# Type: cell-based
# Details: pH of test medium 7.2-7.3
# In short: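 MICs (mg/l) came from NCCLS-guided microdilution, using cation-adjusted Mueller-Hinton medium adjusted to pH 7.2-7.3.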
MIC [µg/mL],MIC S aureus A798,Compound
0.25,,"COc1ccc2nccc(N3CC(N(C)C[C@@H]4CN(c5ccc(F)c(Cl)c5)C(=O)O4)C3)c2n1 [Example 136, (R)-3-(3-Chloro-4-fluoro-phenyl)-5-({[1-(6-methoxy-[1,5]naphthyridin-4-yl)-azetidin-3-yl]-methyl-amino}-methyl)-oxazolidin-2-one]"
≤ 0.031,,"COc1ccc2ncc(F)c(N3CCC(N(C)C[C@@H]4CN(c5ccc6c(c5)NC(=O)CS6)C(=O)O4)CC3)c2n1 [Example 124, 6-[(R)-5-({[1-(3-Fluoro-6-methoxy-[1,5]naphthyridin-4-yl)-piperidin-4-yl]-methyl-amino}-methyl)-2-oxo-oxazolidin-3-yl]-4H-benzo[1,4]thiazin-3-one]"
0.25,,"COc1ccc2nccc(N3CC(CNC(=O)[C@@H]4CN(c5ccc(C)c(F)c5)C(=O)O4)C3)c2n1 [Example 130, (S)-3-(3-Fluoro-4-methyl-phenyl)-2-oxo-oxazolidine-5-carboxylic acid [1-(6-methoxy-[1,5]naphthyridin-4-yl)-azetidin-3-ylmethyl]-amide]"
≤ 0.031,,"COc1ccc2nccc(N3CC(N(C)C[C@@H]4CN(c5ccc(Br)c(C)c5)C(=O)O4)C3)c2n1 [Example 143, (R)-3-(4-Bromo-3-methyl-phenyl)-5-({[1-(6-methoxy-[1,5]naphthyridin-4-yl)-azetidin-3-yl]-methyl-amino}-methyl)-oxazolidin-2-one]"
≤ 0.031,,"N#Cc1ccc2nccc(N3CCC(NC[C@@H]4CN(c5ccc6c(c5)NC(=O)CS6)C(=O)O4)CC3)c2c1 [Example 180, 4-(4-{[(R)-2-oxo-3-(3-oxo-3,4-dihydro-2H-benzo[1,4]thiazin-6-yl)-oxazolidin-5-ylmethyl]-amino}-piperidin-1-yl)-quinoline-6-carbonitrile]"
0.25,,"COc1ccc2nccc(N3CC(N(C)C[C@@H]4CN(c5cccc(F)c5)C(=O)O4)C3)c2n1 [Example 147, (R)-3-(3-Fluoro-phenyl)-5-({[1-(6-methoxy-[1,5]naphthyridin-4-yl)-azetidin-3-yl]-methyl-amino}-methyl)-oxazolidin-2-one]"
≤ 0.031,,"COc1ccc(N2C[C@@H](CNC3CN(c4ccnc5ccc(OC)nc45)C3)OC2=O)cc1 [Example 174, (R)-5-{[1-(6-Methoxy-[1,5]naphthyridin-4-yl)-azetidin-3-ylamino]-methyl}-3-(4-methoxy-phenyl)-oxazolidin-2-one]"
≤ 0.031,,"COc1ccc2nccc(N3CCC(NC[C@@H]4CN(c5ccc(C)c(F)c5)C(=O)O4)CC3)c2n1 [Example 121, (R)-3-(3-Fluoro-4-methyl-phenyl)-5-{[1-(6-methoxy-[1,5]naphthyridin-4-yl)-piperidin-4-ylamino]-methyl}-oxazolidin-2-one]"
≤ 0.031,,"COc1ccc2nccc(N3CC(N(C)C[C@@H]4CN(c5ccc6c(n5)NC(=O)CO6)C(=O)O4)C3)c2n1 [Example 150, 6-[(R)-5-({[1-(6-Methoxy-[1,5]naphthyridin-4-yl)-azetidin-3-yl]-methyl-amino}-methyl)-2-oxo-oxazolidin-3-yl]-4H-pyrido[3,2-b][1,4]oxazin-3-one]"

# The remaining lines, values behind:
Compound,MIC [µg/mL],MIC S aureus A798
"COc1ccc2nccc(N3CCCN(C[C@@H]4CN(c5ccc6c(c5)NC(=O)CO6)C(=O)O4)CC3)c2n1 [Example 105, 6-{(R)-5-[4-(6-Methoxy-[1,5]naphthyridin-4-yl)-[1,4]diazepan-1-ylmethyl]-2-oxo-oxazolidin-3-yl}-4H-benzo[1,4]oxazin-3-one]",≤ 0.031,
"COc1ccc2nccc(N3CC[C@@H](NC[C@@H]4CN(c5ccc6c(c5)OCCO6)C(=O)O4)C3)c2n1 [Example 42, (R)-3-(2,3-Dihydro-benzo[1,4]dioxin-6-yl)-5-{[(R)-1-(6-methoxy-[1,5]naphthyridin-4-yl)-pyrrolidin-3-ylamino]-methyl}-oxazolidin-2-one]",≤ 0.031,
"COc1ccc2nccc(N3CCCN(C[C@@H]4CN(c5ccc6c(c5)OCCO6)C(=O)O4)CC3)c2n1 [Example 107, (R)-3-(2,3-Dihydro-benzo[1,4]dioxin-6-yl)-5-[4-(6-methoxy-[1,5]naphthyridin-4-yl)-[1,4]diazepan-1-ylmethyl]-oxazolidin-2-one]",≤ 0.031,
"COc1ccc2nccc(N3CCN(CC4CN(c5ccc(C)cn5)C(=O)O4)CC3)c2n1 (racemic) [Example 43, (RS)-5-[4-(6-Methoxy-[1,5]naphthyridin-4-yl)-piperazin-1-ylmethyl]-3-(5-methyl-pyridin-2-yl)-oxazolidin-2-one]",1,
"COc1ccc2nccc(N3C[C@@H](O)[C@H](NC[C@@H]4CN(c5ccc6c(c5)NC(=O)CS6)C(=O)O4)C3)c2n1 (relative stereo) [Example 76, 6-((R)-5-{[(3R*,4R*)-4-Hydroxy-1-(6-methoxy-[1,5]naphthyridin-4-yl)-pyrrolidin-3-ylamino]-methyl}-2-oxo-oxazolidin-3-yl)-4H-benzo[1,4]thiazin-3-one]",≤ 0.031,
"COc1ccc2nccc(N3CCN(CC4CN(c5ccc6c(c5)OCCO6)C(=O)O4)CC3)c2n1 (racemic) [Example 8, (RS)-3-(2,3-Dihydro-benzo[1,4]dioxin-6-yl)-5-[4-(6-methoxy-[1,5]naphthyridin-4-yl)-piperazin-1-ylmethyl]-oxazolidin-2-one]",≤ 0.031,
"COc1ccc2nccc(N3CCN(C[C@@H]4CN(c5ccccc5)C(=O)O4)CC3)c2n1 [Example 12, (R)-5-[4-(6-Methoxy-[1,5]naphthyridin-4-yl)-piperazin-1-ylmethyl]-3-phenyl-oxazolidin-2-one]",≤ 0.031,
"COc1ccc2ncnc(N3CCN(CC4CN(c5ccc6c(c5)OCCO6)C(=O)O4)CC3)c2c1 (racemic) [Example 6, (RS)-3-(2,3-Dihydro-benzo[1,4]dioxin-6-yl)-5-[4-(6-methoxy-quinazolin-4-yl)-piperazin-1-ylmethyl]-oxazolidin-2-one]",≤ 0.031,
"COc1ccc2nccc(N3CCN(C[C@H]4CN(c5ccc6c(c5)OCCO6)C(=O)O4)CC3)c2n1 [Example 37, (S)-3-(2,3-Dihydro-benzo[1,4]dioxin-6-yl)-5-[4-(6-methoxy-[1,5]naphthyridin-4-yl)-piperazin-1-ylmethyl]-oxazolidin-2-one]",0.063,
"COc1ccc2nccc(N3CC(CNC[C@H]4CN(c5ccc6c(c5)NC(=O)CS6)C(=O)O4)C3)c2n1 [Example 59, 6-[(S)-5-({[1-(6-Methoxy-[1,5]naphthyridin-4-yl)-azetidin-3-ylmethyl]-amino}-methyl)-2-oxo-oxazolidin-3-yl]-4H-benzo[1,4]thiazin-3-one]",≤ 0.031,
"COc1ccc2ncc(F)c(N3CC[C@H](NC[C@@H]4CN(c5ccc6c(c5)OCCO6)C(=O)O4)C3)c2n1 [Example 66, (R)-3-(2,3-Dihydro-benzo[1,4]dioxin-6-yl)-5-{[(5)-1-(3-fluoro-6-methoxy-[1,5]naphthyridin-4-yl)-pyrrolidin-3-ylamino]-methyl}-oxazolidin-2-one]",,<=0.031 mg/l
"COc1ccc2nccc(N3CCN(C[C@@H]4CN(c5ccc(C)c(Br)c5)C(=O)O4)CC3)c2n1 [Example 32, (R)-3-(3-Bromo-4-methyl-phenyl)-5-[4-(6-methoxy-[1,5]naphthyridin-4-yl)-piperazin-1-ylmethyl]-oxazolidin-2-one]",≤ 0.031,
"COc1ccc2nccc(N3CCN(C[C@@H]4CN(c5ccc(OC(F)(F)F)cc5)C(=O)O4)CC3)c2n1 [Example 11, (R)-5-[4-(6-Methoxy-[1,5]naphthyridin-4-yl)-piperazin-1-ylmethyl]-3-(4-trifluoromethoxy-phenyl)-oxazolidin-2-one]",0.063,
